Assay results as given in PubChem BioAssay AID2060892 (Molecular Pharmacology Branch, DTP, NCI, 2025).

Tested on: HOP-62 complex spheroids with HUVEC/MSC, viability
Experiment: Anticancer human tumor HOP-62 cell line growth inhibition [RAS];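 note: spheroids exposed to agents for seven days before readout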;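 for viability, T/C: 100% = DMSO vehicle control viability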
Conditions: for IC50: curve of first compound; for viability, T/C: stronger effect = lower value
Method in brief: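 Tumour cells grown as complex spheroids with HUVEC endothelial cells and mesenchymal stem cells, treated with RAS pathway inhibitor combinations. Each agent spans half-log steps from near clinical Cmax, or 10 microM where Cmax is unknown.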

`CCc1c2c(nc3ccc(O)cc13)-c1cc3c(c(=O)n1C2)COC(=O)[C@]3(O)CC` + CCn1c(-c2cccnc2C(C)OC)c2c3cc(ccc31)N1CCOC(CC(NC(=O)C(C(C)C)N(C)C(=O)C3(F)CCN(C(=O)C#CC(C)(C)N(C)C)CC3)C(=O)N3CCCC(N3)C(=O)OCC(C)(C)C2)C1 gave an IC50 (second compound 0.000949 µM) of less than 949 pM, an IC50 (second compound 0.003 µM) of less than 949 pM and an IC50 (second compound 0.00949 µM) of less than 949 pM. The IC50 (second compound 0.03 µM) was less than 949 pM, the IC50 (second compound 0.0949 µM) was less than 949 pM and the IC50 (second compound 0.3 µM) was less than 949 pM. For the same molecule, the viability, T/C (second compound 0.000949 µM, first compound 0.000949 µM) was 45%, the viability, T/C (second compound 0.000949 µM, first compound 0.003 µM) was 15.7% and the viability, T/C (second compound 0.000949 µM, first compound 0.00949 µM) was 6.01%. The viability, T/C (second compound 0.000949 µM, first compound 0.03 µM) was 6.3%, the viability, T/C (second compound 0.000949 µM, first compound 0.0949 µM) was 4.47% and the viability, T/C (second compound 0.000949 µM, first compound 0.3 µM) was 15.6%. The viability, T/C (second compound 0.003 µM, first compound 0.000949 µM) was 45.6%, the viability, T/C (second compound 0.003 µM, first compound 0.003 µM) was 14.3% and the viability, T/C (second compound 0.003 µM, first compound 0.00949 µM) was 7.48%. It also gave a viability, T/C (second compound 0.003 µM, first compound 0.03 µM) of 7.59%, a viability, T/C (second compound 0.003 µM, first compound 0.0949 µM) of 5.27% and a viability, T/C (second compound 0.003 µM, first compound 0.3 µM) of 2.57%. It also gave a viability, T/C (second compound 0.00949 µM, first compound 0.000949 µM) of 41.5%, a viability, T/C (second compound 0.00949 µM, first compound 0.003 µM) of 13.7% and a viability, T/C (second compound 0.00949 µM, first compound 0.00949 µM) of 8.71%. It also gave a viability, T/C (second compound 0.00949 µM, first compound 0.03 µM) of 5.6%, a viability, T/C (second compound 0.00949 µM, first compound 0.0949 µM) of 3.2% and a viability, T/C (second compound 0.00949 µM, first compound 0.3 µM) of 2.48%. It also gave a viability, T/C (second compound 0.03 µM, first compound 0.000949 µM) of 41%, a viability, T/C (second compound 0.03 µM, first compound 0.003 µM) of 14.1% and a viability, T/C (second compound 0.03 µM, first compound 0.00949 µM) of 7.78%. The viability, T/C (second compound 0.03 µM, first compound 0.03 µM) was 6.23%, the viability, T/C (second compound 0.03 µM, first compound 0.0949 µM) was 2.8% and the viability, T/C (second compound 0.03 µM, first compound 0.3 µM) was 3.13%. The viability, T/C (second compound 0.0949 µM, first compound 0.000949 µM) was 36.4%, the viability, T/C (second compound 0.0949 µM, first compound 0.003 µM) was 14.8% and the viability, T/C (second compound 0.0949 µM, first compound 0.00949 µM) was 9.82%. For the same molecule, the viability, T/C (second compound 0.0949 µM, first compound 0.03 µM) was 6.01%, the viability, T/C (second compound 0.0949 µM, first compound 0.0949 µM) was 2.96% and the viability, T/C (second compound 0.0949 µM, first compound 0.3 µM) was 2.45%. It also gave a viability, T/C (second compound 0.3 µM, first compound 0.000949 µM) of 28.9%, a viability, T/C (second compound 0.3 µM, first compound 0.003 µM) of 13.9% and a viability, T/C (second compound 0.3 µM, first compound 0.00949 µM) of 11%. The viability, T/C (second compound 0.3 µM, first compound 0.03 µM) was 4.25%, the viability, T/C (second compound 0.3 µM, first compound 0.0949 µM) was 3.87% and the viability, T/C (second compound 0.3 µM, first compound 0.3 µM) was 2.14%.
